Target: T1, P2X7 receptor (Homo sapiens, UniProt Q99572)
T1 construct: host or cells: SH-SY5Y
T1 sequence (Q99572 1-595): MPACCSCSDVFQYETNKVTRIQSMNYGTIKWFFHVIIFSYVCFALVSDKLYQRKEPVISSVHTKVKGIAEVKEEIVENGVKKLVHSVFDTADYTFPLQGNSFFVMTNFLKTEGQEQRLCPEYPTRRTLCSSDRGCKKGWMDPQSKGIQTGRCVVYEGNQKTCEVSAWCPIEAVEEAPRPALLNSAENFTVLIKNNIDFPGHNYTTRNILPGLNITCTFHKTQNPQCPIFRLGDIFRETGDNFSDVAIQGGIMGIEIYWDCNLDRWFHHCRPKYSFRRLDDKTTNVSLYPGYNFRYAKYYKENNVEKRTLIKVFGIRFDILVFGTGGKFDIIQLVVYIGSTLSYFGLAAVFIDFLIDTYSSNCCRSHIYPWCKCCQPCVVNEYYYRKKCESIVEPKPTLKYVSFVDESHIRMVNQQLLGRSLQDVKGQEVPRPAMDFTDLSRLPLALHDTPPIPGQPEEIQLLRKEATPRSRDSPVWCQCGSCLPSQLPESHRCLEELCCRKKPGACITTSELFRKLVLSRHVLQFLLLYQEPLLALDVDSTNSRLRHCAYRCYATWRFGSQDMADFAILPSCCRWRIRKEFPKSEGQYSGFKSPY
Experiment: High throughput P2X7 calcium mobilization assay (Example 4A)
Assay type: cell-based
Details: SH-SY5Y cells; 50% decrease in fluorescence response of cells exposed to 80 μM BzATP; Table I
Procedure, shortened: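 SH-SY5Y cells loaded with 2.3 μM Fluo-4 AM for 1 h at 37 °C, then preincubated 1 h at room temperature with test compound (final 1–2500 nM) in low-sodium sucrose buffer, pH 7.4. Antagonism measured against 80 μM BzATP (about EC50) as peak FLIPR calcium fluorescence over 2 min, corrected by no-agonist background.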

Compound | IC50 [µM]
Cc1cnc(-n2cc(C(=O)NCC(CC(C)C)c3ccc(C(F)(F)F)cc3)c(C)n2)nc1N (centres unmarked) [Compound 115, 1-(4-amino-5-methylpyrimidin-2-yl)-3-methyl-N-{4-methyl-2-[4-(trifluoromethyl)phenyl]pentyl}-1H-pyrazole-4-carboxamide] | ≤ 2
Cc1nn(-c2ncc(F)c(N)n2)cc1C(=O)NCC(CC(C)C)c1ccc(C(F)(F)F)cc1 (centres unmarked) [Compound 116, 1-(4-amino-5-fluoropyrimidin-2-yl)-3-methyl-N-{4-methyl-2-[4-(trifluoromethyl)phenyl]pentyl}-1H-pyrazole-4-carboxamide] | ≤ 2
Cc1nn(-c2ncc(F)cn2)cc1C(=O)NCC(CC(C)C)c1ccc(C(F)(F)F)cc1 (centres unmarked) [Compound 117, 1-(5-fluoropyrimidin-2-yl)-3-methyl-N-{4-methyl-2-[4-(trifluoromethyl)phenyl]pentyl}-1H-pyrazole-4-carboxamide] | ≤ 2
O=C(NCC12CC3CC(CC(C3)C1)C2)c1cn(-c2ncc(F)cn2)nc1C(F)(F)F [Compound 118, N-(adamantan-1-ylmethyl)-1-(5-fluoropyrimidin-2-yl)-3-(trifluoromethyl)-1H-pyrazole-4-carboxamide] | ≤ 2
Cc1cnc(-n2cc(C(=O)NCC34CC5CC(CC(C5)C3)C4)c(C)n2)nc1-c1ccncc1 [Compound 119, N-(adamantan-1-ylmethyl)-3-methyl-1-(5-methyl-4-pyridin-4-ylpyrimidin-2-yl)-1H-pyrazole-4-carboxamide] | ≤ 2
Cc1cnc(-n2cc(C(=O)NCC34CC5CC(CC(C5)C3)C4)c(C)n2)nc1-c1cncnc1 [Compound 120, N-(adamantan-1-ylmethyl)-3-methyl-1-(5-methyl-4,5′ bipyrimidin-2-yl)-1H-pyrazole-4-carboxamide] | ≤ 2
Cc1cnc(-n2cc(C(=O)NCC34CC5CC(CC(C5)C3)C4)c(C)n2)nc1-c1ccccn1 [Compound 121, N-(adamantan-1-ylmethyl)-3-methyl-1-(5-methyl-4-pyridin-2-ylpyrimidin-2-yl)-1H-pyrazole-4-carboxamide] | ≤ 2
Cc1cnc(-n2cc(C(=O)NCC34CC5CC(CC(C5)C3)C4)c(C)n2)nc1-c1ncccn1 [Compound 122, N-(adamantan-1-ylmethyl)-3-methyl-1-(5′-methyl-2,4′-bipyrimidin-2′-yl)-1H-pyrazole-4-carboxamide] | ≤ 2
Cc1cnc(-n2cc(C(=O)NCC34CC5CC(CC(C5)C3)C4)c(C(F)(F)F)n2)nc1N [Compound 123, N-(adamantan-1-ylmethyl)-1-(4-amino-5-methylpyrimidin-2-yl)-3-(trifluoromethyl)-1H-pyrazole-4-carboxamide] | ≤ 2
Cc1ccc(-n2cc(C(=O)NCC34CC5CC(CC(C5)C3)C4)c(C(F)(F)F)n2)nc1 [Compound 124, N-(adamantan-1-ylmethyl)-1-(5-methylpyridin-2-yl)-3-(trifluoromethyl)-1H-pyrazole-4-carboxamide] | ≤ 2
Cc1nn(-c2ncc(Br)cn2)cc1C(=O)NCC12CC3CC(CC(C3)C1)C2 [Compound 125, N-(adamantan-1-ylmethyl)-1-(5-bromopyrimidin-2-yl)-3-methyl-1H-pyrazole-4-carboxamide] | ≤ 2
CC(C)c1nn(-c2ncc(F)c(N)n2)cc1C(=O)NCC12CC3CC(CC(C3)C1)C2 [Compound 126, N-(adamantan-1-ylmethyl)-1-(4-amino-5-fluoropyrimidin-2-yl)-3-isopropyl-1H-pyrazole-4-carboxamide] | ≤ 2
CC(C)c1nn(-c2ncc(F)cn2)cc1C(=O)NCC12CC3CC(CC(C3)C1)C2 [Compound 127, N-(adamantan-1-ylmethyl)-1-(5-fluoropyrimidin-2-yl)-3-isopropyl-1H-pyrazole-4-carboxamide] | ≤ 2
Cc1c(N)ncnc1-n1cc(C(=O)NCC23CC4CC(CC(C4)C2)C3)c(C(F)(F)F)n1 [Compound 128, N-(adamantan-1-ylmethyl)-1-(6-amino-5-methylpyrimidin-4-yl)-3-(trifluoromethyl)-1H-pyrazole-4-carboxamide] | ≤ 2
O=C(NCC12CC3CC(CC(C3)C1)C2)c1cn(-c2ncccn2)nc1C(F)(F)F [Compound 129, N-(adamantan-1-ylmethyl)-1-pyrimidin-2-yl-3-(trifluoromethyl)-1H-pyrazole-4-carboxamide] | ≤ 2
Nc1ccnc(-n2cc(C(=O)NCC34CC5CC(CC(C5)C3)C4)c(C(F)(F)F)n2)n1 [Compound 130, N-(adamantan-1-ylmethyl)-1-(4-aminopyrimidin-2-yl)-3-(trifluoromethyl)-1H-pyrazole-4-carboxamide] | ≤ 2
Nc1cccnc1-n1cc(C(=O)NCC23CC4CC(CC(C4)C2)C3)c(C(F)(F)F)n1 [Compound 131, N-(adamantan-1-ylmethyl)-1-(3-aminopyridin-2-yl)-3-(trifluoromethyl)-1H-pyrazole-4-carboxamide] | ≤ 2
Cc1cccnc1-n1cc(C(=O)NCC23CC4CC(CC(C4)C2)C3)c(C(F)(F)F)n1 [Compound 132, N-(adamantan-1-ylmethyl)-1-(3-methylpyridin-2-yl)-3-(trifluoromethyl)-1H-pyrazole-4-carboxamide] | ≤ 2
CC(C)c1nn(-c2nccs2)cc1C(=O)NCC12CC3CC(CC(C3)C1)C2 [Compound 133, N-(adamantan-1-ylmethyl)-3-isopropyl-1-(1,3-thiazol-2-yl)-1H-pyrazole-4-carboxamide] | ≤ 2
O=C(NCC12CC3CC(CC(C3)C1)C2)c1c[nH]nc1C(F)(F)F [Compound 134, N-(adamantan-1-ylmethyl)-3-(trifluoromethyl)-1H-pyrazole-4-carboxamide] | ≤ 2
O=C(NCC12CC3CC(CC(C3)C1)C2)c1cn(-c2nccs2)nc1C(F)(F)F [Compound 135, N-(adamantan-1-ylmethyl)-1-(1,3-thiazol-2-yl)-3-(trifluoromethyl)-1H-pyrazole-4-carboxamide] | ≤ 2
O=C(NCC12CC3CC(CC(C3)C1)C2)c1cn(-c2cnccn2)nc1C(F)(F)F [Compound 136, N-(adamantan-1-ylmethyl)-1-pyrazin-2-yl-3-(trifluoromethyl)-1H-pyrazole-4-carboxamide] | ≤ 2
Nc1cncc(-n2cc(C(=O)NCC34CC5CC(CC(C5)C3)C4)c(C(F)(F)F)n2)n1 [Compound 137, N-(adamantan-1-ylmethyl)-1-(6-aminopyrazin-2-yl)-3-(trifluoromethyl)-1H-pyrazole-4-carboxamide] | ≤ 2
Cc1ccc(C2(CNC(=O)c3cn(-c4ncc(F)c(N)n4)nc3C(F)(F)F)CCCCC2)cn1 [Compound 138, 1-(4-amino-5-fluoropyrimidin-2-yl)-N-{[1-(6-methylpyridin-3-yl)cyclohexyl]methyl}-3-(trifluoromethyl)-1H-pyrazole-4-carboxamide] | ≤ 2
CC(C)CC(CNC(=O)c1cn(-c2ncc(F)c(N)n2)nc1C(F)(F)F)c1cccnc1 (centres unmarked) [Compound 139, 1-(4-amino-5-fluoropyrimidin-2-yl)-N-(4-methyl-2-pyridin-3-ylpentyl)-3-(trifluoromethyl)-1H-pyrazole-4-carboxamide] | ≤ 2
CC(C)CC(CNC(=O)c1cn(-c2ncc(F)c(N)n2)nc1C(F)(F)F)c1ccc(Cl)cc1 (centres unmarked) [Compound 140, 1-(4-amino-5-fluoropyrimidin-2-yl)-N-[2-(4-chlorophenyl)-4-methylpentyl]-3-(trifluoromethyl)-1H-pyrazole-4-carboxamide] | ≤ 2

Reference: patent US9133204B2, “5-membered heterocyclic amides and related compounds” (H. Lundbeck A/S, priority 2007, dated 2015)
